Experimental data as given in BindingDB's records for patent US10308662 (Signal Rx Pharmaceuticals, 2019).
pIC50: −log10 of the molar value.

Target: T1, Bromodomain-containing protein 4 [349-460] (Homo sapiens, UniProt O60885)
T1 construct: 349-460
Assay: in vitro […] inhibition assay
From the text: Inhibitory activity can be determined routinely using known methods and also from commercial vendors offering this service for kinases and bromodomain proteins. […] The activity of a compound of the invention as an inhibitor of a bromodomain-containing protein, such as a BET protein, such as BRD2, BRD3, BRD4, and/or BRDT, or an isoform or mutant thereof, may be determined in vitro, in vivo, or in a cell line. In vitro assays include assays that determine inhibition of bromodomain-containing proteins. Alternatively, inhibitor binding may be determined by running a competition experiment where a provided compound is incubated with a bromodomain-containing protein, such as a BET protein bound to known ligands, labeled or unlabeled. For example, bromodomain inhibition can be determined in vitro using Alpha Screen Technology (http://www.reactionbiology.com/webapps/site/NewsPDFs/Bromodomain%20Assay%20Platform%20for%20Drug%20Screening%20and%20Discovery.pdf).

CCOC(=O)c1ccc(-c2csc3c(=O)cc(N4CCSCC4)oc23)cc1 [US10308662, Compound 125]
pIC50: 5.73
